Results as given in US20250195521A1 (Revolution Medicines, Inc., priority 2020, published 2025).
Values joined by “and” are separate entries in the source; they are usually repeats but may differ in a detail not shown here. Identical values can stand only once. Like-named read-outs stand apart in the source and are kept apart here.

Tests used:
[1] = target: K-Ras G12C(GMP-PNP) binding to BRAF RBD (Homo sapiens (Human), UniProt P01116+P62937, G12C); assay: Disruption of BRAF RBD interaction with K-Ras (FRET / MOA assay), K-Ras G12C; assay type: biochemical
Text: Note—The following protocol describes a procedure for monitoring disruption of K-Ras G12C(GMP-PNP) binding to BRAF^RBD by a compound of the invention. This protocol may also be executed substituting other Ras proteins or nucleotides.
The purpose of this biochemical assay was to measure the ability of test compounds to facilitate ternary complex formation between a nucleotide-loaded K-Ras isoform and Cyclophilin A; the resulting ternary complex disrupts binding to a BRAF^RBD construct, inhibiting K-Ras signaling through a RAF effector. Data is reported as IC50 values.
Compound was present in plate wells as a 10-point 3-fold dilution series starting at a final concentration of 30 μM. After incubation at 25° C. for 3 hours, a mixture of Anti-His Eu—W1024 and anti-GST allophycocyanin was then added to assay sample wells at final concentrations of 10 nM and 50 nM, respectively, and the reaction incubated for an additional 1.5 hours. […] Compounds that facilitate disruption of a K-Ras: RAF complex were identified as those eliciting a decrease in the TR-FRET ratio relative to DMSO control wells.

[2] = tested on: K-Ras G12C (NCI-H358 cells); assay: Potency assay: pERK in NCI-H358 cells; assay type: cell-based, human; settings: NCI-H358 cells, 4 hours, read-out: pERK EC50 (H358 KRAS G12C)
Procedure, shortened: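 Cells plated the day before were exposed for 4 h at 37° C, 5% CO2 to a 10-point, 3-fold DMSO dilution series (10 mM top stock), in duplicate. Phospho-ERK was read by AlphaLISA SureFire Ultra or by In-Cell Western with DRAQ5 DNA stain, and IC50 came from a 4-parameter sigmoidal fit.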

[3] = tested on: NCI-H358 (K-Ras G12C); assay: CellTiter-Glo cell viability assay, NCI-H358; assay type: cell-based, human; settings: Homo sapiens, NCI-H358, 120 h, 5-day treatment; read-out: H358 Cell Viability assay data (K-Ras G12C, IC50)
Procedure, shortened: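 Viability is measured as ATP-dependent luminescence (CellTiter-Glo) five days into compound treatment. Responses are normalized to vehicle (DMSO) wells and fitted by four-parameter logistic regression.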

[4] = tested on: Capan-1 cells (K-Ras G12V); assay: CellTiter-Glo cell viability, Capan-1; assay type: cell-based, human; settings: Homo sapiens, CAPAN-1, 120 h, K-Ras G12V, 5-day treatment; read-out: Capan-1 Cell Viability IC50
Procedure, shortened: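 Viability is read as luminescence after five days of compound exposure, with plates first equilibrated to room temperature for roughly 30 minutes. Each signal is expressed as a percentage of the mean DMSO control, and curves are fitted by four-parameter logistic regression.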

[5] = target: KRAS G12D (Homo sapiens (Human), UniProt P01116+P62937, G12D); assay: Ras-Raf disruption/FRET/MOA assay (BRAF RBD, Cyclophilin A); assay type: biochemical; settings: read-out: KRAS G12D FRET IC50
Procedure, shortened: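 His6-K-Ras-GMPPNP (12.5 nM), GST-BRAF RBD (50 nM) and tagless Cyclophilin A (25 μM) were combined in 25 mM HEPES pH 7.3 with 100 mM NaCl, 5 mM MgCl2, 0.1% BSA and 0.002% Tween20, with compound as a 10-point 3-fold series from 30 μM final, then incubated 3 h at 25° C.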

Chain of K-Ras G12C(GMP-PNP) binding to BRAF RBD (P01116 other isoform, or with tags, fused parts or gaps G12C): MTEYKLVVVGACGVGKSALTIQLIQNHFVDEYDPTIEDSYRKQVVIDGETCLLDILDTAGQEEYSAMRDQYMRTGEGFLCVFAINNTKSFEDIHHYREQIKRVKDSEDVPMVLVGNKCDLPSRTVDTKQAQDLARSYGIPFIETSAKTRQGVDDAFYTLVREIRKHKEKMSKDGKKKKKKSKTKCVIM
Chain of K-Ras G12C(GMP-PNP) binding to BRAF RBD (P62937 whole entry): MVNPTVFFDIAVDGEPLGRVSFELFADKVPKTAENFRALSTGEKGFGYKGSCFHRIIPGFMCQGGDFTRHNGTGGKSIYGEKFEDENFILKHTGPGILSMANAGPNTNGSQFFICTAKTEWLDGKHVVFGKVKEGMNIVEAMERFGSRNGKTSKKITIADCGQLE
Chain of KRAS G12D (P01116 other isoform, or with tags, fused parts or gaps G12D): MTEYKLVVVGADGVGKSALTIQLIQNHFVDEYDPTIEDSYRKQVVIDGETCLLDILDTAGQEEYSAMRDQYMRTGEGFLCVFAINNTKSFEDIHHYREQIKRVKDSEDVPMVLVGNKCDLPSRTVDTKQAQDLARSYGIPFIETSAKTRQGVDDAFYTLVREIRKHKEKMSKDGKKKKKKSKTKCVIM
Chain of KRAS G12D (P62937 whole entry): as the sequence (P62937 whole entry) above

Row | IC50 ([1]; read-out: KRAS G12C FRET IC50) | EC50 ([2]; Homo sapiens) | Compound | further results
1 | 100 to 1000 nM and < 10 nM | < 5000 nM | CCn1c(-c2cccnc2[C@H](C)OC)c2c3cc(ccc31)-c1cccc(c1)C[C@H](NC(=O)[C@H](C(C)C)N(C)C(=O)[C@H]1CCN(C(=O)C(C)(C)N(C)C)C1)C(=O)N1CCC[C@H](N1)C(=O)OCC(C)(C)C2 [Compound A112] | 
2 |  | < 5000 nM | CCn1c(-c2cccnc2[C@H](C)OC)c2c3cc(ccc31)-c1cc(O)cc(c1)C[C@H](NC(=O)[C@H](C(C)C)N(C)C(=O)C1CCN3CCOCC13)C(=O)N1CCC[C@H](N1)C(=O)OCC(C)(C)C2 (stereo partly shown) [Compound A123] | IC50 ([1]; KRAS G12C FRET IC50): 10 to 100 nM
3 | 10 to 100 nM and < 10 nM |  | CCn1c(-c2cccnc2[C@H](C)OC)c2c3cc(ccc31)-c1cc(O)cc(c1)C[C@H](NC(=O)[C@H](C(C)C)N(C)C(=O)O[C@H]1CCOC1)C(=O)N1CCC[C@H](N1)C(=O)OCC(C)(C)C2 [Compound A209] | 
4 | 100 to 1000 nM |  | CCn1c(-c2cccnc2[C@H](C)OC)c2c3cc(ccc31)-c1cc(O)cc(c1)C[C@H](NC(=O)[C@H](C(C)C)N(C)C(=O)[C@H]1CCN(C(=O)[C@H]3CCCN3)C1)C(=O)N1CCC[C@H](N1)C(=O)OCC(C)(C)C2 [Compound A378] | IC50 [4]: 1000 to 10000 nM

More lines, now with the values behind:

Row | Compound | IC50 ([1]; read-out: KRAS G12C FRET IC50) | EC50 ([2]; Homo sapiens) | further results
5 | CCn1c(-c2cccnc2[C@H](C)OC)c2c3cc(ccc31)-c1csc(n1)C[C@H](NC(=O)[C@H](C(C)C)N(C)C(=O)[C@H]1CCN(C(=O)CN)C1)C(=O)N1CCC[C@H](N1)C(=O)OCC(C)(C)C2 [Compound A106] | 1000 to 10000 nM |  | 
6 | CCn1c(-c2cccnc2[C@H](C)OC)c2c3cc(ccc31)-c1csc(n1)C[C@H](NC(=O)[C@H](C(C)C)N(C)C(=O)N(C)C)C(=O)N1CCC[C@H](N1)C(=O)OCC(C)(C)C2 [Compound A136] | 1000 to 10000 nM |  | 
7 | CCn1c(-c2cccnc2[C@H](C)OC)c2c3cc(ccc31)-c1csc(n1)C[C@H](NC(=O)[C@H](C(C)C)N(C)C(=O)[C@@H]1OCC[C@@H]1C)C(=O)N1CCC[C@H](N1)C(=O)OCC(C)(C)C2 [Compound A143] | 100 to 1000 nM |  | IC50 [3]: 10 to 100 nM
8 | C=CC(=O)N1CC[C@]2(CCCN([C@H](C(=O)N[C@H]3Cc4cc(O)cc(c4)-c4ccc5c(c4)c(c(-c4ccccc4CCOC)n5CC)CC(C)(C)COC(=O)[C@@H]4CCCN(N4)C3=O)C(C)C)C2)C1 [Compound A217] | 100 to 1000 nM and > 10000 nM | < 5000 nM | 
9 | CCn1c(-c2cccnc2[C@H](C)OC)c2c3cc(ccc31)C1=C[C@@H](O)CN(C1)C[C@H](NC(=O)[C@H]1[C@H](C)[C@@H]1C)C(=O)N1CCC[C@H](N1)C(=O)OCC(C)(C)C2 [Compound A441, (1R,2R,3S)—N-((2^3S,6^3S,4S)-1^1-ethyl-2^3-hydroxy-1^2-(2-((S)-1-methoxyethyl)pyridin-3-yl)-10,10-dimethyl-5,7-dioxo-2^1,2^2,2^3,2^6,6^1,6^2,6^3,6^4,6^5,6^6-decahydro-1^1H-8-oxa-1 (5,3)-indola-6 (1,3)-pyridazina-2 (5,1)-pyridinacycloundecaphane-4-yl)-2,3-dimethylcyclopropane-1-carboxamide] | 1000 to 10000 nM |  | IC50 [5]: 100 to 1000 nM; EC50 [2]: < 5000 nM
